{"source": "patent US20240076699A1", "about": "“BIOSYNTHESIS OF SUBSTITUTED COMPOUNDS AND CANNABINOIDS” (Invizyne Technologies, Inc., priority 2022, published 2024)", "key": {"[1]": {"conditions": "results in an inactive metabolite; cited from earlier work"}, "[2]": {"biological_target": "Bovine serum albumin (BSA) (Bos taurus, UniProt P02769)", "sequence (P02769 25-607)": "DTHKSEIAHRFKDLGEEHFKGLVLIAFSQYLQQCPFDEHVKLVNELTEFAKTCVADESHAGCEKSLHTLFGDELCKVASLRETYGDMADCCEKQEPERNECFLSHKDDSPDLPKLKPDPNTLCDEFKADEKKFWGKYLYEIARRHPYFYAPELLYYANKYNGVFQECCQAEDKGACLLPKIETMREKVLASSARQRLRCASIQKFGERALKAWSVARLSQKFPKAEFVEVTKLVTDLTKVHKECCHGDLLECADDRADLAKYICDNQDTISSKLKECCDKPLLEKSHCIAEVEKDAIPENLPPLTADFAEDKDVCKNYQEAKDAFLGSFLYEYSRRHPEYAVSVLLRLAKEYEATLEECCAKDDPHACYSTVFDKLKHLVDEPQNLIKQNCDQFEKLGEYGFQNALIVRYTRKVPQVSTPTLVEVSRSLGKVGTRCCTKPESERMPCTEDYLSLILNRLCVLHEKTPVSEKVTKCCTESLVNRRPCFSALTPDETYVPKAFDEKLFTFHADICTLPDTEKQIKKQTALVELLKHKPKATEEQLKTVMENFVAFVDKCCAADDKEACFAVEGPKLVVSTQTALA", "experiment": "BSA binding seen during extraction", "conditions": "reaction mixture extraction", "excerpt": "In one embodiment, upon formation of the THCA compound of the present invention, the compound is purified to isolate the produced THCA. The extraction of CBGA and THCA into ethylacetate formed an emulsion which could only be partially broken with the addition of hexane. Bovine serum albumin (BSA) binds both CBGA and THCA tightly and thus not all of the product is recoverable in the organic phase of the purification process. However, acid precipitation of the BSA with the addition of 1% HCl allows for the denaturation of BSA and subsequent unbinding of the CBGA and THCA to allow extraction and purification. In one embodiment, the HCl is added directly to the reaction mixture, which is then incubated for about 10 minutes to assure full denaturation of BSA. The mixture is then centrifuged for about 30 minutes at 4000 g. After centrifuging the mixture, the CBGA and THCA coprecipitate into pelleted form. The pellet is then washed with water until the water reaches a neutral pH. The pellet is then resuspended in methanol using vigorous vortexing. The methanol mixture was rotavapped over a water bath at 40° C., and the resulting oil was resuspended in ethanol. The THCA then precipitates as a brown oil. The reaction mixture is then filtered and washed with water and then resuspended in hexane. The hexane was then rotavapped to remove mass added to the product by excess […]. […]"}, "[3]": {"experiment": "Solubility in nonane overlay versus water", "format": "physicochemical"}, "[4]": {"experiment": "nLC-MS/MS of CBGA and dCBGA samples after one hour", "format": "in vitro ADME", "description": "(§1) Additional samples were subjected to nano-scale liquid chromatographic tandem mass spectrometry (nLC-MS/MS). Samples were prepared using 2 μL of standard and 198 μL of 50:50 water:acetonitrile in 0.1% formic acid. A 1 μL sample was injected."}, "[5]": {"experiment": "nLC-MS/MS comparison of CBGA and dCBGA after one hour (degradation)", "format": "in vitro ADME", "conditions": "matrix not stated", "description": "as §1\nTable 10 compares nLC-MS/MS data for the CBGA samples and dCBGA samples after one hour.\nFIG. 26 illustrates a graph comparing CBGA and dCBGA. Sample 1, Sample 2, and Sample 3 are shown left to right for both CBGA and dCBGA."}, "[6]": {"biological_target": "T1, methionine adenosyltransferase (MAT) from Thermococcus kodakarensis (tk) (Thermococcus kodakarensis, UniProt Q5JF22)", "T1 sequence (Q5JF22 1-405)": "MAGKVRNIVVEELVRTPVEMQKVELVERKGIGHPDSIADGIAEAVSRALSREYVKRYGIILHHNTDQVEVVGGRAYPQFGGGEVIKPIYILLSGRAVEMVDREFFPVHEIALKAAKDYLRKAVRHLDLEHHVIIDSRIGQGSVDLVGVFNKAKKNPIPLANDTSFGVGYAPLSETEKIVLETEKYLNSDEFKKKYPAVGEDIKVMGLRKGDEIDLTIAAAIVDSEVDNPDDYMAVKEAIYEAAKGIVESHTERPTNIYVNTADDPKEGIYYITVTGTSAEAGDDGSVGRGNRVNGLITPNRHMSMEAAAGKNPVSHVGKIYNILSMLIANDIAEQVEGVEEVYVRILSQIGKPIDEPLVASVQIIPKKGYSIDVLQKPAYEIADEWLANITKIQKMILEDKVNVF", "conditions": "5 mM met or d3-met, 10 μM MAT, 1 h room temperature"}, "[7]": {"biological_target": "T2, methionine adenosyltransferase (MAT) from Methanocaldococcusjannaschii (mj) (Methanocaldococcus jannaschii, UniProt Q58605)", "T2 sequence (Q58605 1-406)": "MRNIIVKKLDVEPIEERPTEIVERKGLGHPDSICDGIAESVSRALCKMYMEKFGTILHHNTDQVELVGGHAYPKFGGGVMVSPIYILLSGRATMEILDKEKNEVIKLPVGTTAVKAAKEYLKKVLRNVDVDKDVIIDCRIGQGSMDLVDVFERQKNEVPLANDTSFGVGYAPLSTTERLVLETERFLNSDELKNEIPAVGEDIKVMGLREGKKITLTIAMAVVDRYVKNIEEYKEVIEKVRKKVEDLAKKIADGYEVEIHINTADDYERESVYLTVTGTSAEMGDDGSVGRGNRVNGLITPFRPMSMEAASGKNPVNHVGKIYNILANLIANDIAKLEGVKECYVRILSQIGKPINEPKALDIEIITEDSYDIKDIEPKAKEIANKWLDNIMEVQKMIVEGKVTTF", "conditions": "5 mM met or d3-met, 10 μM MAT, 1 h room temperature"}}, "data": [{"smiles": "C=C(C)[C@@H]1CCC(C)=C[C@H]1c1c(O)cc(CCCCC)cc1O", "note": "[CBD, cannabidiol]", "values": [{"measurement": "metabolites with cleavage of the 5′ pentyl tail", "setting": "[1]", "result": "~25", "unit": "%"}]}, {"smiles": "CCCCCc1cc(O)c(C/C=C(\\C)CCC=C(C)C)c(O)c1C(=O)O", "note": "[CBGA, cannabigerolic acid, reference compound]", "values": [{"measurement": "binding by BSA", "setting": "[2]", "result": "tightly"}, {"measurement": "solubility in water compared with nonane", "setting": "[3]", "result": "more soluble in water than nonane"}, {"measurement": "degradation after one hour, CBGA compared with dCBGA", "setting": "[4]", "result": "CBGA is significantly more degraded after one hour than dCBGA"}]}, {"smiles": "CCCCCc1cc(O)c(C/C=C(\\C)CCC=C(C)C)c(O)c1C(=O)O", "note": "[CBGA, cannabigerolic acid]", "values": [{"measurement": "degradation after one hour compared with dCBGA", "setting": "[5]", "result": "significantly more degraded after one hour than dCBGA"}]}, {"smiles": "CCCc1cc(O)c(C/C=C(\\C)CCC=C(C)C)c(O)c1C(=O)O", "note": "[CBGVA, cannabierovarinic acid]", "values": [{"measurement": "solubility in nonane", "setting": "[3]", "result": "limited solubility"}]}, {"smiles": "CCCCCc1cc2c(c(O)c1C(=O)O)[C@@H]1C=C(C)CC[C@H]1C(C)(C)O2", "note": "[THCA, tetrahydrocannabinolic acid]", "values": [{"measurement": "binding by BSA", "setting": "[2]", "result": "tightly"}]}, {"smiles": "[2H]C([2H])([2H])SCC[C@H](N)C(=O)O", "note": "[d3-met, d3-L-methionine]", "values": [{"measurement": "MAT activity on substrate (Pi released per hour)", "setting": "[6]", "result": "equally active"}, {"measurement": "MAT activity on substrate (Pi released per hour)", "setting": "[7]", "result": "equally active"}]}, {"smiles": "CCCCCc1cc(O)c(C/C=C(\\C)CCC=C(C)C)c(O)c1C(=O)O", "note": "[dCBGA, d11-cannabigerolic acid]", "values": [{"measurement": "degradation after one hour, CBGA compared with dCBGA", "setting": "[4]", "result": "CBGA is significantly more degraded after one hour than dCBGA"}]}, {"smiles": "CSCC[C@H](N)C(=O)O", "note": "[met, methionine, reference compound]", "values": [{"measurement": "MAT activity on substrate (Pi released per hour)", "setting": "[6]", "result": "equally active"}, {"measurement": "MAT activity on substrate (Pi released per hour)", "setting": "[7]", "result": "equally active"}]}]}
